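Method: 48-hour compound exposure of cells in 96-well plates, five concentrations, linear interpolation of endpoints. GI50 = concentration required for 50% inhibition of growth.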 Activity calls are given as the source filed them. No stated cut-off is given here; in the data, active = GI50 up to about 1.1 µM and inactive = higher.

Among the test systems are KM12; DLD-1; NCI-H23; SN12C; ACHN; MOLT-4; OVCAR-3; SK-OV-3; HT-29; SK-MEL-28; K562; IGROV-1; UACC-62; SF-268; DU-145; BT-549; MDA-MB-231; CAKI-1; Malme-3M; MDA-MB-435.
What all share (test): NCI-60 cell line screen, 48 h

In the case of `O=C1/C(=C/c2cc(O)c(O)c(O)c2)Oc2cc(O)cc(OC3OC(CO)C(O)C(O)C3O)c21` (centres undefined), the GI50 was 29.6 µM (inactive) in the test on KM12; 18.7 µM (inactive) in the test on DLD-1; 19.1 µM (inactive) in the test with NCI-H23; 17.3 µM (inactive) in the test on SN12C; 11.6 µM (inactive) in the test on ACHN; 19.1 µM (inactive) with MOLT-4. In addition, the GI50 in the test with OVCAR-3 is 14.9 µM (inactive); in the test with SK-OV-3, 46.1 µM (inactive); with HT-29, 23.9 µM (inactive); in the test on SK-MEL-28 it was 46.3 µM (inactive); with K562 it was 16.9 µM (inactive); in the test with IGROV-1, 36.2 µM (inactive). The GI50 in the test on UACC-62 was 16 µM (inactive).
Take `CC(C)=CCOc1ccc(-c2coc3cc4c(c(O)c3c2=O)C=CC(C)(C)O4)cc1`: the GI50 in the test with KM12 was > 100 µM (inactive); in the test with DLD-1 it was 50.7 µM (inactive); in the test on NCI-H23, 5.35 µM (inactive); in the test with SN12C, > 100 µM (inactive); in the test on ACHN, > 100 µM (inactive); in the test with MOLT-4, > 100 µM (inactive). For the same compound, the GI50 with OVCAR-3 is 2.13 µM (inactive); in the test on HT-29, > 100 µM (inactive); with SK-MEL-28, 91.4 µM (inactive); in the test on K562, 0.389 µM (active); in the test with IGROV-1 it was 21.1 µM (inactive); with SF-268, > 100 µM (inactive).
As to `CC[P+]1(c2ccccc2)[C@@H](C)CC[C@@H]1C`, the GI50 with KM12, with DU-145, with NCI-H23, in the test with BT-549, with MDA-MB-231 and in the test on SN12C was > 100 µM (inactive) throughout. For the same compound, the GI50 with ACHN was > 100 µM (inactive); with MOLT-4, > 100 µM (inactive); in the test on CAKI-1, > 100 µM (inactive); with Malme-3M it was 97.1 µM (inactive); in the test with OVCAR-3 it was 84.1 µM (inactive); in the test on MDA-MB-435, > 100 µM (inactive). The GI50 in the test with SK-OV-3 was > 100 µM (inactive); in the test on HT-29 it was > 100 µM (inactive); in the test with SK-MEL-28, > 100 µM (inactive); with K562, 96.2 µM (inactive); in the test on IGROV-1, > 100 µM (inactive); with UACC-62 it was > 100 µM (inactive). In the test on SF-268, the GI50 was > 100 µM (inactive).
As to `CCCC[C@H]1CCN2C[C@@H](O)[C@@H](O)[C@H]2[C@@H]1O`, the GI50 in the test with KM12, with DU-145, in the test with NCI-H23, with BT-549, with MDA-MB-231 and in the test on SN12C was > 100 µM (inactive) throughout. Further, the GI50 in the test with ACHN, with MOLT-4, with CAKI-1, in the test on Malme-3M, in the test with OVCAR-3 and in the test on MDA-MB-435 was > 100 µM (inactive) throughout. In addition, the GI50 with SK-OV-3, with HT-29, with SK-MEL-28, in the test with K562, in the test on IGROV-1 and in the test with UACC-62 was > 100 µM (inactive) each time. Moreover, the GI50 with SF-268 was > 100 µM (inactive).
On to `C=C1C[C@@H](O)[C@@H](Br)C(C)(C)[C@@]12C=CC(=O)CC2`, for which the GI50 with KM12 was 1.52 µM (inactive); in the test on DU-145, > 100 µM (inactive); with NCI-H23, > 100 µM (inactive); with BT-549, > 100 µM (inactive); with MDA-MB-231, > 100 µM (inactive); in the test on SN12C, > 100 µM (inactive). Further, the GI50 in the test with ACHN, with MOLT-4, in the test on CAKI-1, in the test with Malme-3M, with OVCAR-3 and in the test with MDA-MB-435 was > 100 µM (inactive) each time. Further, the GI50 is > 100 µM (inactive) in the test on SK-OV-3; > 100 µM (inactive) in the test with HT-29; > 100 µM (inactive) with SK-MEL-28; > 100 µM (inactive) in the test with K562; 3.58 µM (inactive) with IGROV-1; > 100 µM (inactive) in the test with UACC-62. In addition, the GI50 in the test with SF-268 is > 100 µM (inactive).
In the case of `CSC12c3cc(C)n(-c4ccc(I)cc4)c3CC(C)(C)CN1C(=O)C2Oc1ccccc1` (centres undefined), the GI50 with KM12, in the test on DU-145, in the test on NCI-H23, in the test with BT-549, with MDA-MB-231 and with SN12C was > 100 µM (inactive) throughout. The GI50 was > 100 µM (inactive) in the test on ACHN; > 63.1 µM (inactive) in the test on MOLT-4; > 100 µM (inactive) with CAKI-1; > 100 µM (inactive) with Malme-3M; > 100 µM (inactive) in the test with OVCAR-3; > 100 µM (inactive) with MDA-MB-435. Also, the GI50 was > 100 µM (inactive) with SK-OV-3; > 100 µM (inactive) in the test on HT-29; > 100 µM (inactive) in the test on SK-MEL-28; > 87.1 µM (inactive) in the test on K562; > 100 µM (inactive) with IGROV-1; > 100 µM (inactive) in the test on UACC-62. In the test with SF-268, the GI50 is > 100 µM (inactive).
Take `COC(=O)[C@@H](COC(=O)/C=C/c1ccc(OC(C)=O)c(OC(C)=O)c1)NC(=O)/C=C/c1ccc(OC(C)=O)c(OC(C)=O)c1`: the GI50 in the test on KM12 was 25.1 µM (inactive); with DU-145 it was 22.8 µM (inactive); in the test on NCI-H23, 28.1 µM (inactive); with BT-549 it was 60.8 µM (inactive); in the test on MDA-MB-231 it was 22.6 µM (inactive); in the test on SN12C, 18 µM (inactive). Moreover, the GI50 in the test with ACHN is 32.2 µM (inactive); in the test on MOLT-4, 38.5 µM (inactive); in the test on CAKI-1 it was 15.3 µM (inactive); with Malme-3M, 6.52 µM (inactive); in the test on OVCAR-3 it was 20.5 µM (inactive); in the test with MDA-MB-435, 29.5 µM (inactive). The GI50 was 55.5 µM (inactive) with SK-OV-3; 22.4 µM (inactive) in the test on HT-29; 70.8 µM (inactive) in the test on SK-MEL-28; > 100 µM (inactive) in the test on K562; 32.4 µM (inactive) in the test on IGROV-1; 19.6 µM (inactive) in the test with UACC-62. Moreover, the GI50 with SF-268 was 29.9 µM (inactive).
For `Oc1c(C2=NNC(c3cccs3)C2)ccc2ccccc12` (centres undefined), the GI50 was 12 µM (inactive) in the test with KM12; 20.9 µM (inactive) in the test with DU-145; 28.5 µM (inactive) with NCI-H23; 32.5 µM (inactive) in the test on BT-549; 26.1 µM (inactive) in the test on MDA-MB-231; 19.4 µM (inactive) in the test on SN12C. Moreover, the GI50 in the test on ACHN is 27.7 µM (inactive); with MOLT-4 it was 10.1 µM (inactive); with CAKI-1, 40.6 µM (inactive); in the test on Malme-3M, 18.8 µM (inactive); in the test on OVCAR-3, 18 µM (inactive); in the test on MDA-MB-435, 18.3 µM (inactive). The GI50 is 27.4 µM (inactive) in the test on SK-OV-3; 17.9 µM (inactive) with HT-29; 36 µM (inactive) in the test with SK-MEL-28; 17.9 µM (inactive) in the test on K562; 14.5 µM (inactive) in the test with IGROV-1; 15.6 µM (inactive) in the test with UACC-62. Besides, in the test on SF-268, the GI50 is 10.9 µM (inactive).

For the origin of these results see ChEMBL document CHEMBL1201862, “PubChem BioAssay data set” (2004).
